Experimental data from patent US9592223B2, “Small molecule inhibitors of MALT1” (Cornell University, priority 2012, dated 2017).

Legend:
[1] = system: cleavage of A20, BCL10 and RELB; assay: Cleavage of MALT1 substrates with MG-132 in HBL-1 and TMD8 cell lines, Western blot; format: cell-based, human; conditions: 2 μM for 30 minutes, then 5 μM MG-132 for one or two hour
Procedure: As these proteins are directed to proteasomal degradation after cleavage (Coornaert et al., 2008; Hailfinger et al., 2011; Rebeaud et al., 2008), we used the proteasome inhibitor MG-132 to facilitate visualization of cleavage products (FIG. 4A).
Equal amounts of total protein (20-75 μg) were separated on sodium dodecyl sulfate-polyacrylamide gel electrophoresis (SDS-PAGE), and electrotransferred onto nitrocellulose membranes. Membranes were incubated with primary antibodies (MALT1, BCL-10, CYLD from Santa Cruz Biotechnologies, Santa Cruz, Calif.; A20 from eBioscience, San Diego, Calif.; phospho-IκB-α, IκB-α, c-REL, RELB from Cell Signaling, Danvers, Mass. and α-Tubulin from Sigma), followed by secondary antibodies conjugated to horseradish peroxidase, which were detected by chemiluminescence (Pierce, Thermo Scientific, Rockford, Ill.).

[2] = system: MALT1^C464A (inactive mutant) NF-κB activation; assay: NF-κB reporter assay in 293T cells, PMA/ionomycin, BCL10 and MALT1 C464A; format: cell-based; conditions: pre-treatment
Text: Antigen receptor-mediated NF-κB signaling partly depends on MALT1 activity (Ruefli-Brasse et al., 2003; Ruland et al., 2003). […] First, 293T cells were transfected with the NF-κB reporter vector (NF-κB)5-luc2CP-pGL4 (harboring 5 copies of the NF-κB consensus response element and a destabilized Firefly luciferase) and TK-pRL control together with plasmids expressing BCL10 and either MALT1^WT or MALT1^C464A. […] HBL-1 was transfected with the reporter construct (NF-κB)5-luc2CP-pGL4 and TK-pRL control.
Reporter assays were performed in 293T cells seeded at a density of 2×10^5 cells per well of a 12-well dish. 100 ng of (NF-κB)5-Luc2CP-pGL4 and 10 ng of TK-Renilla internal control plasmid were cotransfected along with 25 ng of the indicated plasmids (MIGR1-MALT1^WT or MIGR1-MALT1^C464A and pcDNA4-Flag-Bcl10) using Lipofectamine 2000 (Invitrogen). Lysates were submitted to dual luciferase assays following manufacturer's protocol (Promega). In HBL-1, 5 μg of (NF-κB)5-Luc2CP-pGL4 and 50 ng of TK-Renilla internal control plasmid per 5×10^6 cells were cotransfected using nucleofection (Amaxa, Lonza, Basel, Switzerland). Forty-eight hours after transfection, cells were plated at a density of 5×10^4 cells per well of a 24-well plate and treated as indicated. Lysates were submitted to dual luciferase assays following manufacturer's protocol (Promega).

[3] = Toxicity 2: 25 mg/kg daily IP for 14 days, blood count, serum chemistry, histology; format: in vivo, mice; conditions: for ALBUMIN / ALP / ALT / AST / BASOPHILS / BUN / CALCIUM / CHLORIDE / CHOLESTEROL / CK / CREATININE / DIRECT BILIRUBIN / EOSINOPHILS / GGT / GLOBULIN / GLUCOSE / HEMATOCRIT / HEMOGLOBIN / INDIRECT BILIRUBIN / LYMPHOCYTES / MONOCYTES / NEUTROPHILS / PHOSPHORUS / PLATELETS / RBC / SODIUM / TOTAL BILIRUBIN / TOTAL PROTEIN / WBC: 25 mg/kg IP daily 14 days
Text: Brain, heart, lung, liver, kidney, bowel, spleen, thymus and bone marrow tissues were examined.

## COCCOc1nc(-c2ccc(Cl)c(Cl)c2)n(-c2ccc(NC(=O)CCl)cc2)n1 [MI-2]
[1]
  cleaved forms of A20, BCL10 and RELB: diminished the abundance of cleaved forms and/or increased the abundance of full-length proteins
[2]
  NF-κB induction by PMA/ionomycin stimulation: did not significantly affect
[3]; d14
  ALBUMIN: 3.12 g/dL
  ALP: 83 U/L
  ALT: 25 U/L
  AST: 70 U/L
  BASOPHILS: 0.01 K/μL
  BUN: 23.4 mg/dL
  CALCIUM: 10.88 mg/dL
  CHLORIDE: 108.4 mEq/L
  CHOLESTEROL: 85.4 mg/dL
  CK: 202.8 U/L
  CREATININE: 0.22 mg/dL
  DIRECT BILIRUBIN: 0.10 mg/dL
  EOSINOPHILS: 0.03 K/μL
  GGT: 0 U/L
  GLOBULIN: 2.20 g/dL
  GLUCOSE: 313.8 mg/dL
  HEMATOCRIT: 40.86%
  HEMOGLOBIN: 12.94 g/dL
  INDIRECT BILIRUBIN: 0.08 mg/dL
  LYMPHOCYTES: 6.29 K/μL
  MONOCYTES: 0.32 K/μL
  NEUTROPHILS: 1.18 K/μL
  PHOSPHORUS: 9.46 mg/dL
  PLATELETS: 981 K/μL
  RBC: 8.60 M/μL
  SODIUM: 152.8 mEq/L
  TOTAL BILIRUBIN: 0.180 mg/dL
  TOTAL PROTEIN: 5.32 g/dL
  WBC: 7.83 K/μL
[3]; d24 (10-day washout)
  ALBUMIN: 3.15 g/dL
  ALP: 100 U/L
  ALT: 23 U/L
  AST: 49.5 U/L
  BASOPHILS: 0.04 K/μL
  BUN: 27.0 mg/dL
  CALCIUM: 10.80 mg/dL
  CHLORIDE: 106.7 mEq/L
  CHOLESTEROL: 91.75 mg/dL
  CK: 119.5 U/L
  CREATININE: 0.20 mg/dL
  DIRECT BILIRUBIN: 0.10 mg/dL
  EOSINOPHILS: 0.11 K/μL
  GGT: 0 U/L
  GLOBULIN: 2.15 g/dL
  GLUCOSE: 288.5 mg/dL
  HEMATOCRIT: 45.02%
  HEMOGLOBIN: 13.55 g/dL
  INDIRECT BILIRUBIN: 0.07 mg/dL
  LYMPHOCYTES: 6.76 K/μL
  MONOCYTES: 0.27 K/μL
  NEUTROPHILS: 1.85 K/μL
  PHOSPHORUS: 9.65 mg/dL
  PLATELETS: 1275 K/μL
  RBC: 9.38 M/μL
  SODIUM: 153 mEq/L
  TOTAL BILIRUBIN: 0.175 mg/dL
  TOTAL PROTEIN: 5.30 g/dL
  WBC: 9.03 K/μL
[3]; daily IP 25 mg/kg over 14 days
  bone marrow histology: normocellular with trilineage maturing hematopoiesis
  complete peripheral blood counts, biochemistry and liver function tests: normal
[3]; daily IP 25 mg/kg over 14 days, cumulative 350 mg/kg
  toxic effects, weight loss, tissue damage: No toxic effects or other indicators of sickness
